Assay results as given in BindingDB's records for PubMed 2894455 (University of Missouri, 1988).
“And” between values parts separate entries of the source, which are not always exact repeats. Equal entries are not always repeated.

Target: T1, Alpha-2B adrenergic receptor (Didelphis virginiana, UniProt O77715)
T1 sequence (O77715 whole entry): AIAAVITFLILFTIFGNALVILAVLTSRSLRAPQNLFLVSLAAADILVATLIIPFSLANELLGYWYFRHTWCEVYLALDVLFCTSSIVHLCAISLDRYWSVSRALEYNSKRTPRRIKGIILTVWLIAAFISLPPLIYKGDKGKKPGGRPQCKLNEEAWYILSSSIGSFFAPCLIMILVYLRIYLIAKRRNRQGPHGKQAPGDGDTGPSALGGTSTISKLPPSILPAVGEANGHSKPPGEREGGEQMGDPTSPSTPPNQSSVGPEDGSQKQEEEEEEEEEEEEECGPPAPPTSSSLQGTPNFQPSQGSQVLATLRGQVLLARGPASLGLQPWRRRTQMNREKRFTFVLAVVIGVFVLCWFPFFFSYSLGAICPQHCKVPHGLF

Compound	Ki
Clc1cccc(Cl)c1N=C1NCCN1 [2-(2,6-dichloroanilino)-2-imidazoline]	14 nM
O=C(c1ccc(F)cc1)C1CCN(CCn2c(=O)[nH]c3ccccc3c2=O)CC1 [3-(2-{4-[(4-fluorophenyl)carbonyl]piperidin-1-yl}ethyl)-1,2,3,4-tetrahydroquinazoline-2,4-dione]	143 nM
CNCC(O)c1ccc(O)c(O)c1 (centres undefined) [EPINEPHRINE]	31 nM
COc1cccc(OC)c1OCCNCC1Oc2ccccc2OC1c1ccccc1 (centres undefined) [NSC_185453]	0.27 nM
NCC(O)c1ccc(O)c(O)c1 (stereo not drawn) [Noradrenaline,(+)]	122 nM
Cc1ccc(N(CC2=NCCN2)c2cccc(O)c2)cc1 [SMR000059054]	5.6 nM
Cc1cc(C(C)(C)C)c(O)c(C)c1CC1=NCCN1 [SMR000059324]	10 nM
Brc1c(NC2=NCCN2)ccc2nccnc12 [UK 14,304]	22 nM
COc1cc2nc(N3CCN(C(=O)c4ccco4)CC3)nc(N)c2cc1OC [[3H]-Minipress]	7.4 nM and 7.6 nM
